Laboratory results from patent US7482379B2, “Propenoyl hydrazides” (priority 2004, dated 2009).

Tests used:
Cathepsin B = Cathepsin B (Homo sapiens, UniProt P07858); assay: Cathepsin B incubation inhibition assay; assay type: biochemical; conditions: Table 4, cross reactivity of caspase inhibitors; listed as Cbz-Leu-Glu-Thr-AAsp-trans-CH═CH—COOEt
Experimental: Papain and Cathepsin B. The incubation method was used to measure the irreversible inhibition of papain and cathepsin B. […] Pseudo first-order inactivation rate constants were obtained from plots of ln vt/vo versus time.

Calpain I = target: T1, Calpain I (Sus scrofa, UniProt P35750); assay: Calpain I incubation inhibition assay; assay type: biochemical, porcine; conditions: Table 4, cross reactivity of caspase inhibitors; listed as Cbz-Leu-Glu-Thr-AAsp-trans-CH═CH—COOEt
T1 construct: by the incubation method with calpain I from porcine erythrocytes; from tissue; host or cells: porcine erythrocytes
T1 sequence (P35750 1-714): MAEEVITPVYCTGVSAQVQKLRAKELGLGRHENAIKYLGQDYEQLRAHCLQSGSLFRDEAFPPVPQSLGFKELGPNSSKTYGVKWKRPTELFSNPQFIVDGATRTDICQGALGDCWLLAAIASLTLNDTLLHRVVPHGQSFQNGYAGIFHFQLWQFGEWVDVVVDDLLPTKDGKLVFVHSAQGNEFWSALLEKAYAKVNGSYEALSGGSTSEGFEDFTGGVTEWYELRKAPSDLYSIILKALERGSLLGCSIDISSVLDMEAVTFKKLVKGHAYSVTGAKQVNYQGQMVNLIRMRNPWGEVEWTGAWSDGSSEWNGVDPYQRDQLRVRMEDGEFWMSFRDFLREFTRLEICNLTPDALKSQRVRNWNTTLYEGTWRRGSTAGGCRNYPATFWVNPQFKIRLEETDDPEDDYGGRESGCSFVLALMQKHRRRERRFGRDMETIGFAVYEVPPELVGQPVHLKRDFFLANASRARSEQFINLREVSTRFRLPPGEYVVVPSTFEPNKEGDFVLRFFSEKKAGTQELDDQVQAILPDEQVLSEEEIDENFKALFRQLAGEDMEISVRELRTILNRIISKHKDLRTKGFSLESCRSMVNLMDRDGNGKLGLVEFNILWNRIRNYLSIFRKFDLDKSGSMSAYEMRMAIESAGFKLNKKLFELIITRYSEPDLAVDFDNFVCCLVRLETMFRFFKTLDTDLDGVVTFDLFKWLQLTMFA
T1 sequence (P04574 1-266 partner): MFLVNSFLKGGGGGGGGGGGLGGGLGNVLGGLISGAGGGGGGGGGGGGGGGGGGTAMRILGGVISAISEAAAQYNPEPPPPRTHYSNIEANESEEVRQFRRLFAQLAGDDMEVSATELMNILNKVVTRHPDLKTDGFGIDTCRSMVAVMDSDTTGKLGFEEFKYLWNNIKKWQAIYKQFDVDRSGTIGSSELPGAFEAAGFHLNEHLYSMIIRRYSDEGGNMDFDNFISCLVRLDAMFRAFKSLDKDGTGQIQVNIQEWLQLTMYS
Experimental: Calpain I. Irreversible kinetic assays were performed by the incubation method with calpain I from porcine erythrocytes. […] At various time intervals 50 μL aliquots were withdrawn from the incubation mixture and added to 200 μL enzyme buffer containing Suc-Leu-Tyr-AMC (1.6 mM). […] Pseudo first-order rate constants (kobs) were obtained from plots of ln vt/vo versus time.

Caspase-3 = target: T2, Caspase-3 (Homo sapiens, UniProt P42574); assay: Caspase-3 progress curve inhibition assay; conditions: second-order rate constant; Ac-DEVD-AMC substrate; Pipes buffer pH 7.2
T2 sequence (P42574 29-175 limits assumed): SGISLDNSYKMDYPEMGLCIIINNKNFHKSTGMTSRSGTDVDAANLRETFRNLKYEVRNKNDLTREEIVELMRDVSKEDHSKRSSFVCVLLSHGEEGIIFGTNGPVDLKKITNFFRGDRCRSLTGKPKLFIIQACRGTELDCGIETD
T2 sequence (P42574 176-277 limits assumed): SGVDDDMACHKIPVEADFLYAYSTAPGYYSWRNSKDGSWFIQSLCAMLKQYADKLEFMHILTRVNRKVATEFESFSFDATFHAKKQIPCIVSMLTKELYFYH

Caspase-9 = target: T3, Caspase-9 (Homo sapiens, UniProt P55211); assay: Caspase-9 progress curve inhibition assay; conditions: second-order rate constant; Ac-LEHD-AFC substrate; Hepes buffer pH 7.0 with 0.7 M sodium citrate
T3 sequence (P55211 1-315 limits assumed): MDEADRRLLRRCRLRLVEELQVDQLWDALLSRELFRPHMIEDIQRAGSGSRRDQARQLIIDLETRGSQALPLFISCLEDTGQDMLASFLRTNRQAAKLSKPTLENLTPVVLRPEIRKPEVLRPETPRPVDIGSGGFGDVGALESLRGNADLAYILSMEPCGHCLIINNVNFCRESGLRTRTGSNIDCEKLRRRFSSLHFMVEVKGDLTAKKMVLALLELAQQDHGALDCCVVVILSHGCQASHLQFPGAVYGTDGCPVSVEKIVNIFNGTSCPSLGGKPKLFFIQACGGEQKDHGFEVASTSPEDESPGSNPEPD
T3 sequence (P55211 331-416 limits assumed): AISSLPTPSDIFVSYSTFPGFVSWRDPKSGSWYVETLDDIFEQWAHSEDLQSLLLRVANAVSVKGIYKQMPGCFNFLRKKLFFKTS
Experimental: Caspases-2, -3, -6, -7, -8, -9 and -10 were expressed in E. coli and purified in Guy Salvesen's laboratory at the Burnham Institute, La Jolla, Calif., according to the methods known in the art. Inhibition rates were determined by the progress curve method known in the art. This method is suitable for measuring irreversible inhibition rates with fast inhibitors, where the inhibitor, the substrate and the enzyme are incubated together and the rate of substrate hydrolysis is measured continuously. The rate of substrate hydrolysis in the presence of the inhibitor was monitored for 20 minutes. The progress curve of inhibition, where the product formation approaches an asymptote is described in the equation ln([P∞]−[P])=ln[P∞]−A[I]t where [P] and [P∞] are the product concentrations at t and t=∞ respectively, A is the apparent rate constant in the presence of the substrate. The apparent rate constants were determined from the slopes of plots of ln ([P∞]−[P]) versus time (t) in seconds as previously described, where A=slope/[I].
For competitive and irreversible inhibition, the apparent rate constant is converted to the second order rate constant k2 by taking into consideration the effect of the substrate concentration on the apparent rate constant. The second order rate constant is described as in the equation: k2=A*(1+[S]/KM)
Assay buffer is a 1:1 mixture of buffer (200 mM Hepes, 100 mM NaCl, 0.02% (w/v) CHAPS, sucrose 20% (w/v)) and 20 mM DTT solution in H2O at pH 7.0). The assay buffer was supplemented with 0.7 M sodium citrate. The enzyme was pre-activated for 10 min at 37° C. in the assay buffer.

CCOC(=O)/C=C/C(=O)N(CC(=O)O)NC(=O)[C@@H](NC(=O)[C@H](CCC(=O)O)NC(=O)[C@H](CC(C)C)NC(=O)OCc1ccccc1)[C@@H](C)O (relative stereo) [Cbz-Leu-Glu-Thr-AAsp-CH═CH—COOEt, N^2—(N-Berzyloxycarbonylleucylglutamylthreonyl)-N^1-carboxymethyl-N^1-trans-(3-ethoxycarbonylpropenoyl)hydrazine]
k2 Cathepsin B (Cathepsin B): <10 M⁻¹ s⁻¹
k2 Calpain (Calpain I): <10 M⁻¹ s⁻¹
k2 Caspase-3 (Caspase-3): 5,560 M^−1s^−1
k2 Caspase-9 (Caspase-9): 37 M⁻¹ s⁻¹
